Reference: patent EP0364581A1, “METHOD OF STERILIZING PLANT POLLEN” (VSESOJUZNY NAUCHNO-ISSLEDOVATELSKY INST. SELSKOKHOZYAISTV. …, priority 1988, dated 1989)
Like-named read-outs stand apart in the source and are kept apart here.

Legend:
Assay in all cases: field test of gametocidal activity (sterilisation of anthers)
Assay type in all cases: in vivo
[1] = test system: Hirse Sorte Mironovskoe 94; details: V. Periode, 1%ige wäßrige Emulsion, 10 kg/ha; for Prozentsatz des Ansetzens der Körner bei freier Bestäubung: control = 100
Description: (§1) Die gametozide Aktivität der erfindungsgemäßen Sterilisationsmittel war in Feldversuch in verschiedenen bodenklimatischen Zonen mit Teilstücken von 10 m^2 Größe in drei-- bis viermaliger Wiederholung nachgewiesen. Jedes Sterilisationsmittel wurde mindestens 5 Jahre lang geprüft.
(§2) Die Entwicklung der Perioden der Organogenese wird zytologisch überwacht. Die Behandlung von Pflanzen mit dem Sterilisationsmittel erfolgt am Anfang der fünften Periode der Organogenese nach Kupermann.
(§3) Mit dem Ahrenschieben verwirklicht man die Isolierung von Hauptähren und anderen Stockwerken in Pergamentbeuteln. Bei Weizen und Tritikale werden Einzelisolatoren verwendet. Bei Roggen schließt man je 1 Ähre von 5 bis 7 verschiedenen nebeneinander befindlichen Pflanzen in einen gemeinsamen Isolator ein. Bei Hirse wird jede Rispe getrennt isoliert. Der Sterilitätsprozentsatz (X) für Weizen, Roggen, Tritikale und Hirse wird nach der Formel [formula]
(§4) Samen von unbehandelten Kontrollpflanzen ermittelt.
(§5) Die Kornzahl in nicht isolierten Ähren von Kontrollpflanzen wird bedingt für 100% Ansetzen bei freier Bestäubung angenommen.
(§6) Um zuverlässige Angaben zu erhalten, verwendet man 20 bis 25 Isolatoren jeder Wiederholung für Weizen und Tritikale, 10 bis 15 Isolatoren jeder Wiederholung für Roggen und Hirse.
Pflanzen der Hirse Sorte Mironovskoe 94 werden in der V. Periode der Organogenese (nach Kupermann) mit einer l%igen wäßrigen Emulsion von Kaliumsalz der 2-Methyl-3-zyklohexen- karbonsäure, 2-Methyl-3-zyklohexenkarbonsäuremethylester, Phthalsäuredihexylester, Phthalsäuredibutylester, Phthalsäuredipropylester, Natriumsalz der p-Hydroxybenzoesäure, Phthalsäurediäthylester, Phthalsäurediallylester behandelt. Die Emulsion enthält 0,01 Masse% Dimethylformamid und 0,1 Masse% C12-C14-Kalziumalkylbenzolsulfonat. Der Verbrauch an Präparat beträgt 10 kg/ha. Als Kontrolle dienen Pflanzen, behandelt mit einem Verdünner ohne Sterilisationsmittel. Die Prüfergebnisse sind in der Tabelle 17 angeführt. […] Periode der Organogenese erhalten.

[2] = test system: Winterweizen Mironovskaya 808; details: treated in V. Periode der Organogenese, 2%ige wäßrige Emulsion, 20 kg/ha; for Prozentsatz des Ansetzens der Körner bei freier Bestäubung: control = 100
Description: as §1, §2, §3, §4, §5, §6
Pflanzen des Winterweizens Sorte Mironovskaya 808 werden in der V. Periode der Organogenese durch Zerstäubung einer 2%igen wäßrigen Emulsion des Kaliumsalzes von 2-Methyl-3-zyklohexenkarbonsäure mit Hilfe einer Rückenspritze behandelt. Als Emulgiermittel setzt man 0,1 Masse% C12--C14 - Kalziumalkylbenzolsulfonat zu. Als Adjuvans führt man in die Emulsion 0,01 Masse% Dimethylformamid ein. Der Verbrauch an Präparat beträgt 20 kg/ha. Als Kontrolle dienen Pflanzen, behandelt mit einem Verdünner ohne Sterilisationsmittel. Die Ergebnisse sind in der Tabelle 1 angegeben. […] Periode der Organogenese erhalten.
Der Prozeß wird analog zu dem in Beispiel 1 beschriebenen durchgeführt. Als Sterilisationsmittel verwendet man eine 2%ige wäßrige Emulsion von 2-Methyl-3-zyklohexenkarbon- säuremethylester, Ammoniumsalz der 2-Methyl-[…], Phthalsäuredihexylester, Phthalsäuredibutylester, Phthalsäuredipropylester, Phthalsäurediisobutylester, Phthalsäurediäthylester. Die Ergebnisse sind in der Tabelle 1 angeführt. […]

Diploider Roggen Chulpan = details: for percent sterility at 8000 g/ha / pest or weed control at 8000 g/ha: read-out: Prozentsatz der Sterilität; for response vs control in vivo at 8000 g/ha: read-out: Prozentsätz des Ansetzens der Körner bei freier Bestäubung
Description: as §1, §2, §3, §4, §5, §6
Pflanzen von diploidem Roggen Sorte Chulpan werden in der V. Periode der Organogenese (nach Kupermann) mit einer 1%igen wäßrigen Emulsion von Kaliumsalz der 2-Methyl-3-zy- klohexenkarbonsäure, 2-Methyl-3-zyklohexenkarbonsäuremethyl- ester, Kaliumsalz der Salizylsäure, Phthalsäurediallylester, Phthalsäurediisobutylester, Phthalsäuredipropylester, Phthalsäuredihexylester, Phthalsäuredibutylester. Die Emulsion enthält 0,01 Masse% Tetrahydrofuran und 0,1 Masse% C12-C14--Kalziumalkylbenzolsulfonat. Der Verbrauch an Präparat beträgt 8 kg/ha. Als Kuntrolle dienen Pflanzen, behandelt mit einem Verdünner ohne Sterilisationsmittel. […]

[3] = test system: tetraploidem Roggen Sorte Belta; details: V. Periode, 1%ige wäßrige Emulsion, 6 kg/ha
Description: as §1, §2, §3, §4, §5, §6
Pflanzen von tetraploidem Roggen Sorte Belta werden in der V. Periode der Organogenese (nach Kupermann) mit einer 1%igen wäßrigen Emulsion von Kaliumsalz der 2-Methyl-3-zy- klohexenkarbonsäure, 2-Methyl-3-zyklohexenkarbonsäuremethyl- ester, Phthalsäuredibutylester, Phthalsäuredihexylester, Phthalsäuredipropylester, Phthalsäurediallylester, Phthalsäurediisobutylester, Kaliumsalz der […] behandelt. Die Emulsion enthält 0,01 Masse% Dimethylsuloxid und 0,1 Masse% C12-C14-Kalziumalkylbenzolsulfonat. Der Verbrauch an Präparat beträgt 6 kg/ha. Als Kontrolle dienen Pflanzen behandelt mit einem Verdünner ohne Sterilisationsmittel.

[4] = Chulpan, V. Periode, 1%ige wäßrige Emulsion, 8 kg/ha
[5] = Chulpan, V. Periode, 1%ige wäßrige Emulsion, 8 kg/ha, control = 100

Compound	Kornzahl der Rispe bei freier Bestäubung [1]	Kornzahl der Rispe im Isolator [1]	Prozentsatz der Sterilität [1]	Prozentsatz des Ansetzens der Körner bei freier Bestäubung [1]	Kornzahl der Ähre bei freier Bestäubung [2]	Kornzahl der Ähre im Isolator [2]	Prozentsatz der Sterilität [2]	Prozentsatz des Ansetzens der Körner bei freier Bestäubung [2]	Kornzahl der Ähre bei freier Bestäubung (Diploider Roggen Chulpan; [4])	Kornzahl der Ähre im Isolator (Diploider Roggen Chulpan; [4])	also measured
CCCCCCOC(=O)c1ccccc1C(=O)OCCCCCC [Beispiel 91, Phthalsäuredihexylester]	311,5	0,0	100,0%	82,1%							
CCOC(=O)c1ccccc1C(=O)OCC [Beispiel 8, Phthalsäurediäthylester]					39,8	0,5	98,7%	98,5%			
CCCOC(=O)c1ccccc1C(=O)OCCC [Beispiel 93, Phthalsäuredipropylester]	308,7	0,0	100,0%	81,3%							
C=CCOC(=O)c1ccccc1C(=O)OCC=C [Beispiel 63, Phthalsäurediallylester]									53,7	0,3	percent sterility at 8000 g/ha (Diploider Roggen Chulpan; [4]): 99.4%; response vs control in vivo at 8000 g/ha (Diploider Roggen Chulpan): 94.5%
COC(=O)C1CCC=CC1C (stereo not shown) [Beispiel 90, 2-Methyl-3-zyklohexenkarbonsäuremethylester]	327,6	0,0	100,0%	86,3%							
CC1C=CCCC1C(=O)O (stereo not shown) [Beispiel 60, Kaliumsalz der 2-Methyl-3-zy-klohexenkarbonsäure]									55,2	0,0	response vs control in vivo at 8000 g/ha (Diploider Roggen Chulpan; [5]): 97.1%; percent sterility at 8000 g/ha (Diploider Roggen Chulpan; [4]): 100%
COC(=O)C1CCC=CC1C (stereo not shown) [Beispiel 2, 2-Methyl-3-zyklohexenkarbon-säuremethylester]					30,1	0,0	100,0%	74,5%			
CCOC(=O)c1ccccc1C(=O)OCC [Beispiel 95, Phthalsäurediäthylester]	352,5	0,0	100,0%	92,6%							
CC(C)COC(=O)c1ccccc1C(=O)OCC(C)C [Beispiel 64, Phthalsäurediisobutylester]									52,2	0,5	pest or weed control at 8000 g/ha (Diploider Roggen Chulpan): 99%; response vs control in vivo at 8000 g/ha (Diploider Roggen Chulpan): 91.9%
CCCOC(=O)c1ccccc1C(=O)OCCC [Beispiel 52, Phthalsäuredipropylester]											Kornzahl der Ähre bei freier Bestäubung [3]: 40,8; Kornzahl der Ähre im Isolator [3]: 0,0; Prozentsatz der Sterilität [3]: 100,0%; Prozentsatz des Ansetzens bei freier Bestäubung ([3]; control = 100): 86,6%
CCCCOC(=O)c1ccccc1C(=O)OCCCC [Beispiel 92, Phthalsäuredibutylester]	351,4	0,0	100,0%	92,6%							
CCCOC(=O)c1ccccc1C(=O)OCCC [Beispiel 6, Phthalsäuredipropylester]					39,0	5,0	86,8%	96,5%			
CC1C=CCCC1C(=O)[O-].[K+] (stereo not shown) [Beispiel 89, Kaliumsalz der 2-Methyl-3-zyklohexen-karbonsäure]	304,3	0,0	100,0%	80,2%							
O=C([O-])c1ccc(O)cc1.[Na+] [Beispiel 94, Natriumsalz der p-Hydroxybenzoesäure]	400,7	0,0	100,0%	105,6%							
CC1C=CCCC1C(=O)O.N (stereo not shown) [Beispiel 3, Ammoniumsalz der 2-Methyl-23-zyklohexen-karbonsäure]					39,2	0,6	98,4%	97,0%			
CC(C)COC(=O)c1ccccc1C(=O)OCC(C)C [Beispiel 7, Phthalsäurediisobutylester]					37,7	0,2	99,5%	93,3%			
CCCOC(=O)c1ccccc1C(=O)OCCC [Beispiel 65, Phthalsäuredipropylester]									53,2	0,0	pest or weed control at 8000 g/ha (Diploider Roggen Chulpan): 100%; response vs control in vivo at 8000 g/ha (Diploider Roggen Chulpan): 93.6%
CCCCCCOC(=O)c1ccccc1C(=O)OCCCCCC [Beispiel 4, Phthalsäuredihexylester]					38,2	4,2	88,9%	94,5%			
CC1C=CCCC1C(=O)[O-].[K+] (stereo not shown) [Beispiel 1, Kaliumsalzes von 2-Methyl-3-zyklohexenkarbonsäure]					38,6	3,2	91,5%	95,5%			
C=CCOC(=O)c1ccccc1C(=O)OCC=C [Beispiel 96, Phthalsäurediallylester]	335,2	0,0	100,0%	88,3%							
COC(=O)C1CCC=CC1C (stereo not shown) [Beispiel 61, 2-Methyl-3-zyklohexenkarbonsäuremethyl-ester]									51,0	0,0	response vs control in vivo at 8000 g/ha (Diploider Roggen Chulpan; [5]): 89.8%; percent sterility at 8000 g/ha (Diploider Roggen Chulpan; [4]): 100%
CCCCOC(=O)c1ccccc1C(=O)OCCCC [Beispiel 67, Phthalsäuredibutylester]									50,5	0,0	pest or weed control at 8000 g/ha (Diploider Roggen Chulpan): 100%; response vs control in vivo at 8000 g/ha (Diploider Roggen Chulpan): 88.9%
CCCCOC(=O)c1ccccc1C(=O)OCCCC [Beispiel 5, Phthalsäuredibutylester]					31,7	0,0	100,0%	78,5%			
O=C(O)c1ccccc1O [Beispiel 62, Kaliumsalz der Salizylsäure]									50,4	10,4	pest or weed control at 8000 g/ha (Diploider Roggen Chulpan): 79.7%; response vs control in vivo at 8000 g/ha (Diploider Roggen Chulpan): 88.7%
CCCCCCOC(=O)c1ccccc1C(=O)OCCCCCC [Beispiel 66, Phthalsäuredihexylester]									57,0	0,0	pest or weed control at 8000 g/ha (Diploider Roggen Chulpan): 100%; response vs control in vivo at 8000 g/ha (Diploider Roggen Chulpan): 100%
